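Method: 48-hour compound exposure of cells in 96-well plates, five concentrations, linear interpolation of endpoints. At the GI50, growth is halved.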 Activity calls are given as the source filed them. Cut-off read from the data, not from the text of the source: active = GI50 up to about 1.1 µM and inactive = higher.
Key:
Assay in all cases: NCI tumour cell line growth inhibition, 48 h
SF-268 = tested on: SF-268
NCI/ADR-RES = tested on: NCI/ADR-RES
SF-539 = tested on: SF-539
SN12C = tested on: SN12C
SNB-75 = tested on: SNB-75
HOP-62 = tested on: HOP-62
NCI-H23 = tested on: NCI-H23
RPMI-8226 = tested on: RPMI-8226
SW-620 = tested on: SW-620
UACC-62 = tested on: UACC-62
OVCAR-8 = tested on: OVCAR-8
K562 = tested on: K562
NCI-H522 = tested on: NCI-H522
MCF7 = tested on: MCF7
SK-MEL-28 = tested on: SK-MEL-28
A549 = tested on: A549
SK-OV-3 = tested on: SK-OV-3
ACHN = tested on: ACHN
SR = tested on: SR

Row | SMILES | GI50 (SF-268) | GI50 (NCI/ADR-RES) | GI50 (SF-539) | GI50 (SN12C) | GI50 (SNB-75) | GI50 (HOP-62) | GI50 (NCI-H23) | GI50 (RPMI-8226) | GI50 (SW-620) | GI50 (UACC-62) | GI50 (OVCAR-8) | GI50 (K562) | GI50 (NCI-H522) | GI50 (MCF7) | GI50 (SK-MEL-28) | GI50 (A549) | GI50 (SK-OV-3) | GI50 (ACHN) | GI50 (SR)
1 | O=NN(CCF)C(=O)NC1CCSCC1 | > 100 µM (inactive) | > 100 µM (inactive) | > 100 µM (inactive) | > 100 µM (inactive) | > 100 µM (inactive) | 1 µM (active) | > 100 µM (inactive) | > 100 µM (inactive) | > 100 µM (inactive) | > 100 µM (inactive) | > 100 µM (inactive) | > 31.6 µM (inactive) | > 100 µM (inactive) | > 100 µM (inactive) | > 100 µM (inactive) | > 100 µM (inactive) | > 100 µM (inactive) | – | –
2 | COc1nc(O)c(N)c(NC2OC(CO)C(O)C(O)C2O)n1 (configuration not stated) | > 100 µM (inactive) | > 100 µM (inactive) | > 100 µM (inactive) | > 100 µM (inactive) | > 100 µM (inactive) | > 100 µM (inactive) | > 100 µM (inactive) | > 100 µM (inactive) | > 100 µM (inactive) | > 100 µM (inactive) | > 100 µM (inactive) | > 90.8 µM (inactive) | > 100 µM (inactive) | > 100 µM (inactive) | > 100 µM (inactive) | > 100 µM (inactive) | > 100 µM (inactive) | – | –
3 | CCC(C(C)N1CC(=O)NC(=O)C1)N1CC(=O)NC(=O)C1 (configuration not stated) | > 87.9 µM (inactive) | 44.8 µM (inactive) | > 39.7 µM (inactive) | 6.27 µM (inactive) | > 48.9 µM (inactive) | 7.01 µM (inactive) | 29 µM (inactive) | 97.5 µM (inactive) | 17.4 µM (inactive) | > 100 µM (inactive) | > 100 µM (inactive) | 9.77 µM (inactive) | 5.65 µM (inactive) | 4.08 µM (inactive) | > 100 µM (inactive) | 1.51 µM (inactive) | > 100 µM (inactive) | – | –
4 | CCCCSCC(NC(=O)/C=C/c1c(C)[nH]c(=O)[nH]c1=O)C(=O)OC (configuration not stated) | 23 µM (inactive) | 358 µM (inactive) | 61.2 µM (inactive) | 37.8 µM (inactive) | 55.5 µM (inactive) | 70.5 µM (inactive) | 90.8 µM (inactive) | 104 µM (inactive) | 78 µM (inactive) | 51.9 µM (inactive) | 37.9 µM (inactive) | 44.1 µM (inactive) | 14.9 µM (inactive) | 15.6 µM (inactive) | 75 µM (inactive) | 124 µM (inactive) | 45.4 µM (inactive) | – | –
5 | Cc1ccc(S(=O)(=O)N/N=C2/C3CCC(C3)C2c2ccccc2)cc1 (configuration not stated) | > 100 µM (inactive) | > 100 µM (inactive) | – | > 100 µM (inactive) | > 100 µM (inactive) | > 100 µM (inactive) | > 100 µM (inactive) | > 100 µM (inactive) | > 100 µM (inactive) | > 100 µM (inactive) | > 100 µM (inactive) | > 100 µM (inactive) | > 100 µM (inactive) | > 100 µM (inactive) | > 100 µM (inactive) | > 100 µM (inactive) | > 100 µM (inactive) | > 100 µM (inactive) | > 100 µM (inactive)
6 | CCC1=CCN(c2cc(C)ccn2)OC1c1ccc(OC)cc1 (configuration not stated) | 45.1 µM (inactive) | – | > 10 µM (inactive) | 26 µM (inactive) | 33.7 µM (inactive) | 44.3 µM (inactive) | 34 µM (inactive) | 22.6 µM (inactive) | 38.1 µM (inactive) | 29.4 µM (inactive) | 32.8 µM (inactive) | 34 µM (inactive) | 16 µM (inactive) | – | 24.1 µM (inactive) | 35.2 µM (inactive) | 48.8 µM (inactive) | 33.5 µM (inactive) | 25.5 µM (inactive)
7 | COC1CCC(OS(C)(=O)=O)CO1 (configuration not stated) | 86.7 µM (inactive) | – | > 100 µM (inactive) | – | 60.5 µM (inactive) | > 100 µM (inactive) | > 100 µM (inactive) | 26.2 µM (inactive) | – | > 100 µM (inactive) | – | 69 µM (inactive) | > 100 µM (inactive) | – | > 100 µM (inactive) | – | > 100 µM (inactive) | > 100 µM (inactive) | 24.7 µM (inactive)
8 | CCCc1c(C(=O)OCC)[nH]c(-c2ccc(-c3[nH]c(C(=O)OCC)c(CCC)c3C(=O)OCC)o2)c1C(=O)OCC | > 100 µM (inactive) | – | > 100 µM (inactive) | > 100 µM (inactive) | > 100 µM (inactive) | – | > 100 µM (inactive) | > 100 µM (inactive) | > 100 µM (inactive) | > 100 µM (inactive) | > 100 µM (inactive) | > 100 µM (inactive) | > 100 µM (inactive) | – | > 100 µM (inactive) | > 100 µM (inactive) | > 100 µM (inactive) | > 100 µM (inactive) | > 100 µM (inactive)

Reference: ChEMBL document CHEMBL1201862, “PubChem BioAssay data set” (2004)
